Experimental data as given in EP4748839A1 (CSPC Zhongqi Pharmaceutical Technology (Shijiazhuang) Co., …, priority 2023, dated 2025).

Molecular target: T1, GLP-1R (Homo sapiens, UniProt P43220)
T1 construct: expressed in transfected cells
Assay: GLP-1R agonistic effect in GLP1R-cAmp-Luc cells (luciferase reporter; titled 'Enzymatic assay')
Type: cell-based
Conditions: for EC50: 4 hours incubation, firefly luciferin signal; for EC50 of Positive reference / EC50 of Compound of the Present Application: Positive reference is PF-06882961
Protocol: The GLP-1R agonistic effects of the test compounds were determined using GLP1R-cAmp-Luc cells. 1) The test compound was dissolved in DMSO and mixed well until the test compound was completely dissolved. The test compounds were dissolved in DMSO to prepare 10 mM stock solutions. All compounds were diluted with DMEM medium (high sugar, Puromycin^+, Hygromycin B^+) to an initial concentration of 1250 nM, and then subjected to 5-fold serial dilution to a total of 7 concentration gradients. The GLP1R-cAmp-Luc cells were seeded in white-wall 96-well cell culture plates at a density of 1×10^5/mL, with 90 µL cell suspension per well; the test compound at each of the 7 concentration gradients was added at 10 µL per well, with the actual initial working concentration of 125 nM; and the cells were placed in a 37 °C, 5% CO2 cell incubator for 4 hours; 2) 100 µL of luciferin potassium salt solution diluted to 300 µg/mL in PBS was added to each well at a working concentration of 150 µg/mL and incubated at room temperature for 30 minutes; 3) fluorescence signals of firefly luciferin were measured with a multifunctional microplate reader (PerkinElmer, Nivo); and the fluorescence values were processed using GraphPad Prism software to calculate EC50 values.

T1 sequence (P43220 24-463, species assumed): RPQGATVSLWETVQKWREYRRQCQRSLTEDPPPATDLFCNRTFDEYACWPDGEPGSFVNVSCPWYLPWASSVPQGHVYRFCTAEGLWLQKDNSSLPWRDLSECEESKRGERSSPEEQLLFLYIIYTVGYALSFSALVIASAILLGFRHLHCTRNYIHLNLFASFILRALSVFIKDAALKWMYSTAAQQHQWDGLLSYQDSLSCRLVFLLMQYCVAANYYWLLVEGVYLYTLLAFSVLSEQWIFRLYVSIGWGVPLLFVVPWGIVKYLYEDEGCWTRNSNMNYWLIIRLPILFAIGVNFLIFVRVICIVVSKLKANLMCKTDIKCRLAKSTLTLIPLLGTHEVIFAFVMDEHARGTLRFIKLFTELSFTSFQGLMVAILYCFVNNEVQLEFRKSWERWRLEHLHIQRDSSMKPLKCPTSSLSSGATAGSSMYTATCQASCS

Structure (SMILES) | EC50 [nM] | EC50 of Positive reference / EC50 of Compound of the Present Application
N#Cc1ccc(COc2cccc(-c3ccc(Cc4nc5ccc(C(=O)O)cc5n4C[C@@H]4CCO4)c4c3OCO4)n2)c(F)c1 [Compound 1, (S)-2-((7-(6-((4-cyano-2-fluorobenzyl)oxy)pyridin-2-yl)benzo[d][1,3]dioxolan-4-yl)methyl)-1-(oxetan-2-ylmethyl)-1H-benzo[d]imidazole-6-carboxylic acid] | 5 to 10 | 
N#Cc1ccc(COc2cccc(-c3ccc(Cc4nc5ccc(C(=O)O)cc5n4C[C@@H]4CCO4)c4c3OCC4)n2)c(F)c1 [Compound 2, (S)-2-((7-(6-((4-cyano-2-fluorobenzyl)oxy)pyridin-2-yl)-2,3-dihydrobenzofuran-4-yl)methyl)-1-(oxetan-2-ylmethyl)-1H-benzo[d]imidazole-6-carboxylic acid] | 1 to 5 | 
CC(c1ccc(-c2cccc(OCc3ccc(C#N)cc3F)n2)c2c1CCO2)c1nc2ccc(C(=O)O)cc2n1C[C@@H]1CCO1 (stereo partly drawn) [Compound 6, 2-(1-(7-(6-((4-cyano-2-fluorobenzyl)oxy)pyridin-2-yl)-2,3-dihydrobenzofuran-4-yl)ethyl)-1-(((S)-oxetan-2-yl)methyl)-1H-benzo[d]imidazole-6-carboxylic acid] | 5 to 10 | 
O=C(O)c1ccc2nc(Cc3ccc(-c4cccc(OCc5ccc(Cl)cc5F)n4)c4[nH]ccc34)n(C[C@@H]3CCO3)c2c1 [Compound 9, (S)-2-((7-(6-((4-chloro-2-fluorobenzyl)oxy)pyridin-2-yl)-1H-indol-4-yl)methyl)-1-(oxetan-2-ylmethyl)-1H-benzo[d]imidazole-6-carboxylic acid] | 1 to 5 | 
N#CCC1(Cn2c(Cc3c(Cl)cc(-c4cccc(OCc5ccc(C#N)cc5F)n4)c4c3CCO4)nc3ccc(C(=O)O)cc32)CC1 [Compound 18, 2-((5-chloro-7-(6-((4-cyano-2-fluorobenzyl)oxy)pyridin-2-yl)-2,3-dihydrobenzofuran-4-yl)methyl)-1-((1-(cyanomethyl)cyclopropyl)methyl)-1H-benzo[d]imidazole-6-carboxylic acid] | 1 to 5 | 
N#CCC1(Cn2c(Cc3c(Cl)cc(-c4cccc(OCc5ccc(C#N)cc5F)n4)c4c3CCO4)nc3ccc(C(=O)O)nc32)CC1 [Compound 19, 2-((5-chloro-7-(6-((4-cyano-2-fluorobenzyl)oxy)pyridin-2-yl)-2,3-dihydrobenzofuran-4-yl)methyl)-3-((1-(cyanomethyl)cyclopropyl)methyl)-3H-imidazo[4,5-b]pyridine-5-carboxylic acid] | 1 to 5 | 
O=C(O)c1ccc2nc(Cc3ccc(-c4cccc(OCc5ccc(Cl)cc5F)n4)c4c3CCC4=O)n(C[C@@H]3CCO3)c2c1 [Compound 20, (S)-2-((7-(6-((4-chloro-2-fluorobenzyl)oxy)pyridin-2-yl)-1-oxo-2,3-dihydro-1H-inden-4-yl)methyl)-1-(oxetan-2-ylmethyl)-1H-benzo[d]imidazole-6-carboxylic acid] | 1 to 5 | 
COc1cc(C(F)(F)F)ccc1COc1cccc(-c2ccc(Cc3nc4c(OC)cc(C(=O)O)cc4n3C[C@@H]3CCO3)c3c2OCCO3)n1 [Compound 62, (S)-4-methoxy-2-((8-(6-((2-methoxy-4-(trifluoromethyl)benzyl)oxy)pyridin-2-yl)-2,3-dihydrobenzo[b][1,4]dioxan-5-yl)methyl)-1-(oxetan-2-ylmethyl)-1H-benzo[d]imidazole-6-carboxylic acid] | 1 to 5 | 
O=C(O)c1cc(OCC(F)F)c2nc(Cc3c(F)cc(-c4cccc(OCc5ccc(Cl)cc5OC(F)F)n4)c4c3OCO4)n(CC3(CF)CC3)c2c1 [Compound 86, 2-((7-(6-((4-Chloro-2-(difluoromethoxy)benzyl)oxy)pyridin-2-yl)-5-fluoro-benzo[d][1,3]dioxolan-4-yl)methyl)-4-(2,2-difluoroethoxy)-1-((1-(fluoromethyl)cyclopropyl)methyl)-1H-benzo[d]imidazole-6-carboxylic acid] | 1 to 5 | 
COc1cc(C(=O)O)cc2c1nc(Cc1c(F)cc(-c3ccnc(OCc4ccc(Cl)cc4F)n3)c3c1CCO3)n2C[C@@H]1CCO1 [Compound 106, (S)-2-((7-(2-((4-chloro-2-fluorobenzyl)oxy)pyrimidin-4-yl)-5-fluoro-2,3-dihydrobenzofuran-4-yl)methyl)-4-methoxy-1-(oxetan-2-ylmethyl)-1H-benzo[d]imidazole-6-carboxylic acid] | ≤ 1 | Ratio ≥10
COc1cc(C(=O)O)cc2c1nc(Cc1c(F)cc(-c3cccc(OCc4ccc(Cl)cc4F)c3)c3c1CCO3)n2C[C@@H]1CCO1 [Compound 107, (S)-2-((7-(3-((4-chloro-2-fluorobenzyl)oxy)phenyl)-5-fluoro-2,3-dihydrobenzofuran-4-yl)methyl)-4-methoxy-1-(oxetan-2-ylmethyl)-1H-benzo[d]imidazole-6-carboxylic acid] | 1 to 5 | 
COc1cc(C(=O)O)cc2c1nc(Cc1c(F)cc(-c3ccc(Cl)c(OCc4ccc(Cl)cc4F)n3)c3c1CCO3)n2C[C@@H]1CCO1 [Compound 108, (S)-2-((7-(5-chloro-6-((4-chloro-2-fluorobenzyl)oxy)pyridin-2-yl)-5-fluoro-2,3-dihydrobenzofuran-4-yl)methyl)-4-methoxy-1-(oxetan-2-ylmethyl)-1H-benzo[d]imidazole-6-carboxylic acid] | 1 to 5 | 

Next, values leading:

EC50 [nM] | EC50 of Positive reference / EC50 of Compound of the Present Application | Structure (SMILES)
≤ 1 | Ratio ≥10 | N#Cc1ccc(COc2cccc(-c3cc(Cl)c(Cc4nc5ccc(C(=O)O)cc5n4C[C@@H]4CCO4)c4c3OCC4)n2)c(F)c1 [Compound 7, (S)-2-((5-chloro-7-(6-((4-cyano-2-fluorobenzyl)oxy)pyridin-2-yl)-2,3-dihydrobenzofuran-4-yl)methyl)-1-(oxetan-2-ylmethyl)-1H-benzo[d]imidazole-6-carboxylic acid]
≤ 1 | Ratio ≥10 | O=C(O)c1ccc2nc(Cc3c(F)cc(-c4cccc(OCc5ccc(Cl)cc5F)n4)c4c3CCO4)n(C[C@@H]3CCO3)c2c1 [Compound 12, (S)-2-((7-(6-((4-chloro-2-fluorobenzyl)oxy)pyridin-2-yl)-5-fluoro-2,3-dihydrobenzofuran-4-yl)methyl)-1-(oxetan-2-ylmethyl)-1H-benzo[d]imidazole-6-carboxylic acid]
≤ 1 | Ratio ≥10 | N#Cc1ccc(COc2cccc(-c3cc(F)c(Cc4nc5c(F)cc(C(=O)O)cc5n4C[C@@H]4CCO4)c4c3OCC4)n2)c(F)c1 [Compound 13, (S)-2-((7-(6-((4-cyano-2-fluorobenzyl)oxy)pyridin-2-yl)-5-fluoro-2,3-dihydrobenzofuran-4-yl)methyl)-4-fluoro-1-(oxetan-2-ylmethyl)-1H-benzo[d]imidazole-6-carboxylic acid]
≤ 1 |  | COc1cc(C(F)(F)F)ccc1COc1cccc(-c2cc(F)c(Cc3nc4c(OCC(F)F)cc(C(=O)O)cc4n3CC3(CF)CC3)c3c2OCC3)n1 [Compound 79]
≤ 1 | Ratio ≥10 | COc1cc(C(F)(F)F)ccc1COc1cccc(-c2cc(F)c(Cc3nc4c(OC)cc(C(=O)O)cc4n3C[C@@H]3CCO3)c3c2OCC3)n1 [Compound 80, (S)-2-((5-fluoro-7-(6-((2-methoxy-4-(trifluoromethyl)benzyl)oxy)pyridin-2-yl)-2,3-dihydrobenzofuran-4-yl)methyl)-4-methoxy-1-(oxetan-2-ylmethyl)-1H-benzo[d]imidazole-6-carboxylic acid]
≤ 1 | Ratio ≥10 | COc1cc(C(=O)O)cc2c1nc(Cc1c(F)cc(-c3cccc(OCc4ccc(Cl)cc4F)n3)c3c1CCO3)n2C[C@@H]1CCO1 [Compound 81, (S)-2-((7-(6-((4-chloro-2-fluorobenzyl)oxy)pyridin-2-yl)-5-fluoro-2,3-dihydrobenzofuran-4-yl)methyl)-4-methoxy-1-(oxetan-2-ylmethyl)-1H-benzo[d]imidazole-6-carboxylic acid]
≤ 1 | Ratio ≥10 | COc1cc(C(=O)O)cc2c1nc(Cc1c(F)cc(-c3cccc(OCc4ccc(Cl)cc4OC(F)F)n3)c3c1CCO3)n2C[C@@H]1CCO1 [Compound 84, (S)-2-((7-(6-((4-chloro-2-(difluoromethoxy)benzyl)oxy)pyridin-2-yl)-5-fluoro-2,3-dihydrobenzofuran-4-yl)methyl)-4-methoxy-1-(oxetan-2-ylmethyl)-1H-benzo[d]imidazole-6-carboxylic acid]
≤ 1 |  | O=C(O)c1ccc2nc(Cc3c(F)cc(-c4cccc(OCc5ccc(Cl)cc5OC(F)F)n4)c4c3CCO4)n(C[C@@H]3CCO3)c2c1 [Compound 95, (S)-2-((7-(6-((4-chloro-2-(difluoromethoxy)benzyl)oxy)pyridin-2-yl)-5-fluoro-2,3-dihydrobenzofuran-4-yl)methyl)-1-(oxetan-2-ylmethyl)-1H-benzimidazole-6-carboxylic acid]
≤ 1 | Ratio ≥10 | COc1cc(C(=O)O)cc2c1nc(Cc1c(F)cc(-c3cccc(OCc4ccc(C#N)cc4F)n3)c3c1CCO3)n2C[C@@H]1CCO1 [Compound 100, (S)-2-((7-(6-((4-cyano-2-fluorobenzyl)oxy)pyridin-2-yl)-5-fluoro-2,3-dihydrobenzofuran-4-yl)methyl)-4-methoxy-1-(oxetan-2-ylmethyl)-1H-benzo[d]imidazole-6-carboxylic acid]
